PMC11396129, “Oxindole–benzothiazole hybrids as CDK2 inhibitors and anticancer agents: design, synthesis and biological evaluation” (BMC Chemistry, 2024)

Key:
Type in all cases: cell-based, human
[1] = test system: DU-145; assay: NCI 60 panel growth inhibition (SRB), prostate cancer; details: DU-145, 10 μM
Method in brief: (§1)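 Cells were plated at 5000–40,000/well and drug was added after 24 h at five concentrations (10-fold or ½ log dilutions), with TCA-fixed time-zero plates as reference. Growth was measured by SRB absorbance, percentage growth was computed against time-zero and control, and TGI was taken at Ti = Tz.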

[2] = test system: PC-3; assay: as above; details: PC-3, 10 μM
Method in brief: as §1

[3] = test system: RXF 393; assay: NCI 60 panel growth inhibition (SRB), renal cancer; details: RXF 393, 10 μM
Method in brief: as §1

[4] = test system: TK-10; assay: NCI 60 panel growth inhibition (SRB), renal cancer; details: TK-10, 10 μM
Method in brief: as §1

[5] = test system: UO-31; assay: NCI 60 panel growth inhibition (SRB), renal cancer; details: UO-31, 10 μM
Method in brief: as §1

[6] = test system: MDA-MB-435; assay: NCI 60 panel growth inhibition (SRB), melanoma; details: MDA-MB-435, 10 μM
Method in brief: as §1

[7] = test system: M14; assay: NCI 60 panel growth inhibition (SRB), melanoma; details: M14, 10 μM
Method in brief: as §1

[8] = test system: SK-MEL-5; assay: NCI 60 panel growth inhibition (SRB), melanoma; details: SK-MEL-5, 10 μM
Method in brief: as §1

[9] = test system: UACC-257; assay: NCI 60 panel growth inhibition (SRB), melanoma; details: UACC-257, 10 μM
Method in brief: as §1

[10] = test system: MALME-3M; assay: NCI 60 panel growth inhibition (SRB), melanoma; details: 10 μM
Method in brief: as §1

[11] = test system: LOX IMVI; assay: NCI 60 panel growth inhibition (SRB), melanoma; details: 10 μM
Method in brief: as §1

[12] = test system: UACC-62; assay: NCI 60 panel growth inhibition (SRB), melanoma; details: UACC-62, 10 μM
Method in brief: as §1

[13] = test system: SK-MEL-28; assay: NCI 60 panel growth inhibition (SRB), melanoma; details: SK-MEL-28, 10 μM
Method in brief: as §1

[14] = test system: HCT-15; assay: NCI 60 panel growth inhibition (SRB), colon cancer; details: HCT-15, 10 μM
Method in brief: as §1

[15] = test system: COLO 205; assay: NCI 60 panel growth inhibition (SRB), colon cancer; details: COLO 205, 10 μM
Method in brief: as §1

[16] = test system: HCC-2998; assay: NCI 60 panel growth inhibition (SRB), colon cancer; details: HCC-2998, 10 μM
Method in brief: as §1

[17] = test system: HCT-116; assay: NCI 60 panel growth inhibition (SRB), colon cancer; details: HCT-116, 10 μM
Method in brief: as §1

[18] = test system: KM12; assay: NCI 60 panel growth inhibition (SRB), colon cancer; details: KM12, 10 μM
Method in brief: as §1

[19] = test system: SW-620; assay: NCI 60 panel growth inhibition (SRB), colon cancer; details: SW-620, 10 μM
Method in brief: as §1

[20] = test system: NCI-H226; assay: NCI 60 panel growth inhibition (SRB), non-small cell lung cancer; details: NCI-H226, 10 μM
Method in brief: as §1

[21] = test system: NCI-H460; assay: as above; details: NCI-H460, 10 μM
Method in brief: as §1

[22] = test system: A549/ATCC; assay: as above; details: 10 μM
Method in brief: as §1

[23] = test system: HOP-62; assay: as above; details: HOP-62, 10 μM
Method in brief: as §1

[24] = test system: NCI-H522; assay: as above; details: NCI-H522, 10 μM
Method in brief: as §1

[25] = test system: EKVX; assay: as above; details: 10 μM
Method in brief: as §1

[26] = test system: NCI-H322M; assay: as above; details: 10 μM
Method in brief: as §1

[27] = test system: HOP-92; assay: as above; details: HOP-92, 10 μM
Method in brief: as §1

[28] = test system: NCI-H23; assay: as above; details: NCI-H23, 10 μM
Method in brief: as §1

[29] = test system: BT-549; assay: NCI 60 panel growth inhibition (SRB), breast cancer; details: BT-549, 10 μM
Method in brief: as §1

[30] = test system: MDA-MB-231/ATCC; assay: as above; details: 10 μM
Method in brief: as §1

[31] = test system: MCF7; assay: as above; details: MCF7, 10 μM
Method in brief: as §1

[32] = test system: MDA-MB-468; assay: as above; details: MDA-MB-468, 10 μM
Method in brief: as §1

[33] = test system: T-47D; assay: as above; details: 10 μM
Method in brief: as §1

[34] = test system: HS 578T; assay: as above; details: 10 μM
Method in brief: as §1

Question: `COc1cccc(-c2nc3ccccc3s2)c1OCC(=O)NN=C1C(=O)Nc2ccc(C)cc21` [Compound 9h, 2-(2-(Benzo[d]thiazol-2-yl)-6-methoxyphenoxy)-N′-(5-methyl-2-oxoindolin-3-ylidene)acetohydrazide] was tested. Which GI% [1] did it give?
Answer: The GI% was “– (GI% < 5%)”.

Question: And the GI% [2]?
Answer: Its GI% is 46.62%.

Question: What about the GI% [3] of the same molecule?
Answer: The GI% was 25.38%.

Question: And the GI% [4]?
Answer: Its GI% is “– (GI% < 5%)”.

Question: What about the GI% [5] of the same molecule?
Answer: The GI% was 38.34%.

Question: What about the GI% [6] of the same molecule?
Answer: Its GI% is “– (GI% < 5%)”.

Question: And the GI% [7]?
Answer: The GI% was 9.67%.

Question: And the GI% [8]?
Answer: Its GI% is 62.94%.

Question: What about the GI% [9] of the same molecule?
Answer: Its GI% is “– (GI% < 5%)”.

Question: And the GI% [10]?
Answer: Its GI% is 16.42%.

Question: And the GI% [11]?
Answer: The GI% was “– (GI% < 5%)”.

Question: What about the GI% [12] of the same molecule?
Answer: Its GI% is 34.75%.

Question: What about the GI% [13] of the same molecule?
Answer: Its GI% is “– (GI% < 5%)”.

Question: And the GI% [14]?
Answer: Its GI% is 5.56%.

Question: And the GI% [15]?
Answer: The GI% was 7.03%.

Question: And the GI% [16]?
Answer: The GI% was “– (GI% < 5%)”.

Question: What about the GI% [17] of the same molecule?
Answer: Its GI% is 22.91%.

Question: What about the GI% [18] of the same molecule?
Answer: The GI% was 8.90%.

Question: What about the GI% [19] of the same molecule?
Answer: The GI% was “– (GI% < 5%)”.

Question: What about the GI% [20] of the same molecule?
Answer: Its GI% is 26.01%.

Question: What about the GI% [21] of the same molecule?
Answer: The GI% was “– (GI% < 5%)”.

Question: And the GI% [22]?
Answer: Its GI% is 24.44%.

Question: What about the GI% [23] of the same molecule?
Answer: The GI% was “– (GI% < 5%)”.

Question: What about the GI% [24] of the same molecule?
Answer: The GI% was “– (GI% < 5%)”.

Question: And the GI% [25]?
Answer: The GI% was 27.92%.

Question: What about the GI% [26] of the same molecule?
Answer: Its GI% is 6.24%.

Question: What about the GI% [27] of the same molecule?
Answer: Its GI% is 23.13%.

Question: And the GI% [28]?
Answer: The GI% was 13.40%.

Question: What about the GI% [29] of the same molecule?
Answer: The GI% was 18.44%.

Question: And the GI% [30]?
Answer: The GI% was 13.89%.

Question: And the GI% [31]?
Answer: Its GI% is 37.74%.

Question: And the GI% [32]?
Answer: The GI% was 26.10%.

Question: What about the GI% [33] of the same molecule?
Answer: Its GI% is 41.06%.

Question: And the GI% [34]?
Answer: The GI% was 9.01%.
